Data taken from PubChem BioAssay (NCI).
Values joined by “and” are separate entries in the source; they are usually repeats but may differ in a detail not shown here. Identical values can stand only once.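 Growth conditions: 96-well plates. Treatment: test compound, 48 hours, 5 concentrations. Analysis: linear interpolation between bracketing concentrations; unreached endpoints set to highest concentration. GI50: concentration for 50% inhibition of growth. TGI is the concentration that stops growth completely.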

Tests used:
Assay in all cases: inhibition of tumour cell growth, NCI panel, 48 h
UO-31 renal = system: UO-31 renal
EKVX NSCLC = system: EKVX NSCLC
SK-MEL-28 melanoma = system: SK-MEL-28 melanoma
SNB-75 CNS = system: SNB-75 CNS
TK-10 renal = system: TK-10 renal
HCT-15 colon = system: HCT-15 colon
SN12C renal = system: SN12C renal
OVCAR-4 ovarian = system: OVCAR-4 ovarian
HS 578T breast = system: HS 578T breast
OVCAR-8 ovarian = system: OVCAR-8 ovarian

SMILES | TGI (UO-31 renal) | TGI (EKVX NSCLC) | TGI (SK-MEL-28 melanoma) | TGI (SNB-75 CNS) | TGI (TK-10 renal) | TGI (HCT-15 colon) | TGI (SN12C renal) | TGI (OVCAR-4 ovarian) | TGI (HS 578T breast) | TGI (OVCAR-8 ovarian) | GI50 (EKVX NSCLC) | GI50 (SK-MEL-28 melanoma) | GI50 (SNB-75 CNS) | GI50 (TK-10 renal) | GI50 (HCT-15 colon) | GI50 (SN12C renal) | GI50 (OVCAR-8 ovarian)
CC12CCCC3(CC(=O)C(C)(C)C3C(=O)C1)C2 (configuration not stated) | > 100 µM | > 100 µM | > 100 µM | > 100 µM | > 100 µM | > 100 µM | > 100 µM | > 100 µM | > 100 µM | > 100 µM |  |  |  |  |  |  | 
OCc1ccc2c(c1)CC1(Cc3ccc(/C=N/O)cc3C1)C2 (configuration not stated) | 80.9 µM | > 100 µM | > 100 µM | > 25.5 µM | > 100 µM | > 45.1 µM | > 54.5 µM | > 61.7 µM | > 26.4 µM | 35.2 µM |  |  |  |  |  |  | 
CC(C)OC(=O)OCSc1ccccc1N=Cc1cccc([N+](=O)[O-])c1 | > 10 µM | > 10 µM | > 10 µM | > 10 µM | > 10 µM | > 10 µM | > 10 µM | > 10 µM | > 10 µM | > 10 µM |  |  |  |  |  |  | 
O=c1[nH]c(=O)n(C2CC(O)C(CO)O2)cc1OCc1ccccc1 (configuration not stated) | > 100 µM | > 100 µM | > 100 µM | > 100 µM | > 100 µM | > 100 µM | > 100 µM | > 100 µM | > 100 µM | > 100 µM |  |  |  |  |  |  | 
CCOC(=O)/C=C(\C(=O)OCC)n1ccc(=O)n(Cc2cn(COCCOC(C)=O)nn2)c1=O | 34.1 µM | 38.9 µM | 41 µM | > 69.4 µM | 29.2 µM | 38 µM | 41.8 µM | 38.3 µM | 63.6 µM | 31.1 µM |  |  |  |  |  |  | 
C=C(CN(C)C)C(=O)c1ccccc1[N+](=O)[O-] | 32.2 µM | > 59.3 µM and 49 µM | 34.1 µM and 51.6 µM | 66.3 µM and 44.4 µM | 34.3 µM and 26.3 µM | 27 µM and 12.6 µM | 32.6 µM and 24.7 µM | 41.1 µM | 77.1 µM | 40.9 µM and 32 µM | 23 µM | 18.8 µM | 15.8 µM | 12.9 µM | 3.34 µM | 3.74 µM | 6.55 µM
S=c1cc(-c2ccc3c(c2)OCO3)s[nH]1 | > 100 µM | > 100 µM | > 100 µM | > 100 µM | > 100 µM | > 100 µM | > 100 µM | > 100 µM | > 100 µM | > 100 µM |  |  |  |  |  |  | 
CCOC(=O)c1cn2c(n1)sc1cc(Cl)cc(Cl)c12 | > 100 µM | > 100 µM | > 100 µM | > 100 µM | > 100 µM | > 100 µM | > 100 µM | > 100 µM | > 100 µM | > 100 µM |  |  |  |  |  |  | 
NC(=O)N/N=C1\CC2C3CC4C2C4C13 (configuration not stated) | > 100 µM | > 100 µM | > 100 µM | > 100 µM | > 100 µM | > 100 µM | > 100 µM | > 100 µM | > 100 µM | > 100 µM |  |  |  |  |  |  | 
C[n+]1c(-c2ccc(/C=C/C=N\NC(=O)c3ccc(C(=O)N/N=C\C=C\c4ccc(-c5cn6ccccc6[n+]5C)cc4)cc3)cc2)cn2ccccc21 | > 100 µM | > 100 µM | > 100 µM | > 100 µM | > 100 µM | > 100 µM | > 100 µM | > 100 µM | > 100 µM | > 100 µM |  |  |  |  |  |  | 
C\C(=N/N=C1/C(=C\N(C)C)C(=O)NC(=O)N1C)c1ccc(Cl)cc1 | > 100 µM | > 100 µM | > 100 µM | > 100 µM | > 100 µM | > 100 µM | > 100 µM | > 100 µM | > 100 µM | > 100 µM |  |  |  |  |  |  | 
O=c1cc(-c2ccccc2)oc2c(-c3cc(Cl)cc4c(=O)cc(-c5ccccc5)oc34)cc(Cl)cc12 | 60.4 µM | > 100 µM | > 100 µM | 94 µM | > 100 µM | > 100 µM | > 100 µM | > 100 µM | > 100 µM | > 100 µM |  |  |  |  |  |  | 
COc1cc2c(cc1Cc1c(F)cccc1Cl)nc(-c1c(F)cccc1Cl)n2Cc1c(F)cccc1Cl | > 100 µM | 69.7 µM | > 100 µM | 70.4 µM | > 100 µM | > 100 µM | > 100 µM | > 100 µM | > 100 µM | > 100 µM |  |  |  |  |  |  | 
CC(C)(C)c1cc(C(=O)/C=C/c2ccc3c(c2)OCO3)cc(C(C)(C)C)c1O | > 81 µM | > 100 µM | > 100 µM | 15.4 µM | 58.1 µM | 33.9 µM | 76.4 µM | 78.7 µM | > 27.1 µM | > 100 µM |  |  |  |  |  |  | 
